Results from PMC7901699, “Challenging inflammatory process at molecular, cellular and in vivo levels via some new pyrazolyl thiazolones” (Journal of Enzyme Inhibition and Medicinal Chemistry, 2021).
Entries after “also recorded” stand apart in the source; their conditions may differ.

Tests used:
[1] = target: T1, human recombinant COX-2 (Homo sapiens, UniProt P35354); experiment: In vitro COX-2 inhibition assay (colorimetric COX inhibitor screening kit, Cayman); format: biochemical
T1 construct: purchased Cayman Chemicals Inc. 560131
T1 sequence (P35354 18-604): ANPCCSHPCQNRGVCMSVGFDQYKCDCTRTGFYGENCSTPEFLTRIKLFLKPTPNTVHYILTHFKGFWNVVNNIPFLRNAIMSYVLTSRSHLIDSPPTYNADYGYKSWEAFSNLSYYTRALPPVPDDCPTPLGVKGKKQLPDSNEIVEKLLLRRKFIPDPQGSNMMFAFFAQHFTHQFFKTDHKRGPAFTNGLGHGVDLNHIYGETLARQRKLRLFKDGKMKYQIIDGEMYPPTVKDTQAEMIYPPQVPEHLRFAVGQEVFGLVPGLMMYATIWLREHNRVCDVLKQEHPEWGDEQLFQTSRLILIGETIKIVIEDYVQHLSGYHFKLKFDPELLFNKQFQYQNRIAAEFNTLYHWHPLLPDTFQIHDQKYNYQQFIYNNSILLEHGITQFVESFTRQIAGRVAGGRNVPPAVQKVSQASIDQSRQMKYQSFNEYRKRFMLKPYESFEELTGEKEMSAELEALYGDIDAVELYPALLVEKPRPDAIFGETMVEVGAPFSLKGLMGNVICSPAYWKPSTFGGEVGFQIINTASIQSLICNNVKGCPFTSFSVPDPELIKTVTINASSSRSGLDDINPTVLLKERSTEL
Description: Both assays were carried out in compliance with the manufacturer’s instructions and in accordance to prior studies[29]^,[33].
IC50 values (μM) and selectivity indices (SI) were calculated.

[2] = test system: THP-1 cells; experiment: Monocyte-to-macrophage differentiation assay, M1 polarisation (PMA then LPS); format: cell-based, human
Description: Monocytes were cultured and differentiated as described previously. THP-1 cells (human acute monocytic leukaemia lineage, American Type Culture Collection, Manassas, VA) were seeded at a density of 20 × 10^5 cells/ml. A set of cells were exposed to 25 nM of phorbol myristate-acetate (PMA, Calbiochem, Darmstadt, Germany) for 24 h to drive differentiation. Another set was similarly treated with PMA followed by 100 ng/ml of lipopolysaccharide (LPS, invivogen, San Diego, CA, USA) for 72 h. After incubation, the supernatant was aspirated and the density of the adherent cells was estimated using MTS colorimetric cell viability kit (Abcam, Cambridge, UK). The inhibitory actions of different compounds on the differentiation process were evaluated by pre-incubation with different concentrations of each compound for 6 h. Cell viability after treatment was normalised to the reading after PMA exposure following a 6-h incubation with DMSO. All experiments were conducted in triplicates. A positive control for the effect of COX1/COX2 inhibition on monocyte-to-macrophage differentiation was obtained by treatment with diclofenac. IC50 values for each compound were determined by non-linear regression as the best fit values of the log [inhibitor] vs. response curve using GraphPad Prism software.

Question: Which “SI (COX-1/ COX-2)” value ([1]; IC50 (COX-1)/IC50 (COX-2)) does the source give for `COc1ccc(-c2nn(-c3ccccc3)cc2/C=C2\SC(N3CCCCC3)=NC2=O)cc1` [Compound 7, (Z)-5-((3-(4-methoxyphenyl)-1-phenyl-1H-pyrazol-4-yl)methylene)-2-(piperidin-1-yl)thiazol-4(5H)-one] here?
Answer: 114

Question: And the IC50 ([1]; mean of three determinations)?
Answer: 0.09 µM

Question: What about the IC50 ([2]; Homo sapiens, THP-1, 6 h pre-incubation, PMA 25 nM 24 h then LPS 100 ng/ml 72 h, MTS, read-out: IC50 inhibition of THP-1 monocyte differentiation into M1 macrophages) of the same compound?
Answer: 15 µM

Question: And the “Inhibition of THP-1 differentiation into M1 macrophages (in words)” value ([2]; PMA then LPS, diclofenac as reference)?
Answer: potent inhibitory effects on monocyte-to-macrophage differentiation; also recorded: higher potency compared to diclofenac
